Patent publication US11649502B2, “Exosomal microRNA in serum as an indicator for the activation of brown and beige fat tissue (BAT)” (RHEINISCHE FRIEDRICH-WILHELMS-UNIVERSITÄT BONN, priority 2015, dated 2023)

Assays:
[1] = system: C57BL/6J wild type mice; experiment: qPCR of exosomal miRNAs in mouse serum after BAT activation; format: in vivo
Experimental: Cold exposure was performed by housing 12 week old male mice at 4° C. for 7 days. The β3-adrenergic agonist CL-316,243 (#1499, Tocris, Wiesbaden, GER, 0.2 mg/mL in 0.9 W/V % NaCl) was administered by subcutaneous injection (1 μg per g body weight) for 7 days. Control-treated C57BL/6J mice received vehicle injections (0.9% NaCl) correspondingly. Blood collections were performed after 4 hours of fasting.

[2] = system: UCP-1; experiment: UCP-1 expression after NE treatment in 3T3-L1 cells; format: cell-based; details: 3T3-L1 cells after NE treatment
Excerpt: The supernatant was withdrawn and used for exosome isolation.

[3] = system: UCP-1; experiment: UCP-1 expression after NE treatment in primary murine white adipocytes; format: cell-based, mouse; details: primary murine white adipocytes treated with NE
[4] = serum of mice with active BAT (CL-316,243 or cold)

`C[C@H](Cc1ccc2c(c1)OC(C(=O)[O-])(C(=O)[O-])O2)NC[C@H](O)c1cccc(Cl)c1.[Na+].[Na+]` [CL] was tested, and the “miR-133a in serum-derived exosomes” value ([1]; CL-treated mice, 1 μg per g body weight s.c. for 7 days) was “down-regulated”, the “miR-34c* in serum exosomes (qPCR)” value [1, 4] was “significantly up-” and the “miR-92a in serum exosomes (qPCR)” value [1, 4] was “down-regulated”.
For `NC[C@H](O)c1ccc(O)c(O)c1` [NE, norepinephrine], the UCP-1 expression [2] was “did not significantly increase” and the UCP-1 expression [3] was “significant increase”.
